Results from patent US20080119496A1, “7-Substituted Purine Derivatives for Immunosuppression” (PHARMACOPEIA DRUG DISCOVERY, INC., priority 2006, published 2008).

Columns and labels:
[1] = system: IL-2-induced IFN-γ production; test: IL-2-Induced IFN-γ Production in the Mouse; assay type: in vivo; conditions: po, 1 h, by gavage one hour before IL-2, serum IFN-γ, female BALB/c mice, read-out: inhibition of IL-2-induced IFN-gamma production
Procedure: Administration of IL-2 leads to an increase in serum IFN-γ in the mouse due to NK secretion of the cytokine (Thornton S, Kuhn K A, Finkelman F D and Hirsch R. NK cells secrete high levels of IFN-γ in response to in vivo administration of IL-2. Eur J Immunol 2001 31:3355-3360). The experiment was carried out essentially according to the protocol in Thornton et al. and the test compounds were administered in order to determine the level of inhibition attained. In summary, female BALB/c mice were fasted for 12-18 hours before a study but had free access to water at all times. Test compounds were administered by gavage one hour before intraperitoneal injection of IL-2 and capture antibody. At termination of the studies, the mice were sacrificed by carbon dioxide inhalation, terminal blood samples were collected by cardiac puncture and serum was generated. Serum was stored frozen until it was assayed for IFN-γ, as described by the kit manufacturer (BD Pharmingen™, San Diego, Calif.).

[2] = system: spontaneous autoimmune diabetes; conditions: NOD mouse; cited from earlier work
GVHD = conditions: reviewed in Cetkovic-Cvrlje and Ucken, 2004; cited from earlier work
heart transplantation = conditions: orally active; Changelian, et al., 2003; cited from earlier work
kidney transplantation = conditions: orally active; Changelian, et al., 2003; cited from earlier work

| Structure (SMILES) | inhibition at 30 mg/kg [1] | other results |
| --- | --- | --- |
| C[C@@H]1CCN(C(=O)CC#N)C[C@@H]1N(C)c1ncnc2[nH]ccc12 [CP690550] | 96% | – |
| COc1cc2ncnc(Nc3ccc(O)cc3)c2cc1OC [JANEX-1] | – | spontaneous autoimmune diabetes development [2]: prevent spontaneous autoimmune diabetes development; severity of GVHD (GVHD): attenuate the severity of GVHD |
| O=c1[nH]c2cnc(-n3cnc4cc(F)ccc43)nc2n1[C@@H]1CCOc2c(F)cccc21 [Example 28, 2-(5-Fluoro-1H-benzo[d]imidazol-1-yl)-9-((R)-8-fluorochroman-4-yl)-7H-purin-8(9H)-one] | > 40% | – |
| Cn1c(=O)n([C@@H]2CCOc3c(F)cccc32)c2nc(-n3cnc4ccc(C#N)cc43)ncc21 [Example 505] | > 40% | – |
| Cn1c(=O)n(C2CCOc3c(F)cc(F)cc32)c2nc(-n3cnc4ccc(C#N)cc43)ncc21 (stereo not shown) [Example 501] | > 40% | – |
| C[C@@H]1CCN(C(=O)CC#N)C[C@@H]1N(C)c1ncnc2[nH]ccc12 [CP-690,550] | – | animal survival / immunosuppression (heart transplantation): prolong animal survival; animal survival / immunosuppression (kidney transplantation): prolong animal survival |
| Cn1c(=O)n(C2CCOc3ccc(F)cc32)c2nc(-n3cnc4ccc(C#N)cc43)ncc21 (stereo not shown) [Example 504] | > 40% | – |
| O=c1[nH]c2cnc(-n3cnc4ccccc43)nc2n1[C@@H]1CCOc2c(F)cccc21 [Example 16, 2-(1H-Benzo[d]imidazol-1-yl)-9-((R)-8-fluorochroman-4-yl)-7H-purin-8(9H)-one] | > 40% | – |
